Data taken from patent US4766131A, “2-amino (or hydroxy) phenethyl-1,2,3,4-tetrahydroisoquinolines as analgesics” (Pennwalt Corporation, priority 1986, dated 1988).
Counter-ions that a name gives are not always drawn.

What was measured:
[1] = literature, Medicinal Chemistry, Vol. 5; cited from earlier work
rats [2] = experiment: hot plate test in rats; assay type: in vivo; conditions: 1 h, rat, 60 minute post dose interval, 54.5°±1.0° C., read-out: ED50 (95% C.L.), Rat Hot Plate
Method: (§1) Two compounds, N-(4-aminophenethyl)-1,2,3,4-tetrahydro-6,7-dimethoxy-1-methylisoquinoline(Compound No. 1) and its N-methyl derivative (Compound No. 2) were tested for analgesic activity in rats and mice by the oral and subcutaneous routes. In addition, gross behavioral and toxicological effects (as well as general pharmacological profiling) were evaluated in mice by the intraperitoneal route of administration.
(§2) In rats, two procedures designed to detect anlgesic acitivity were used: the hot plate test and the tail flick test. In the hot plate test, rats were placed on the surface of a copper plate maintained at 54.5°±1.0° C. and their response latency (again consisting of paw licking or jumping behavior) determined at 60 minutes and again at 30 minutes before drug injection. These response times were again determined 30 and 60 minutes after drug injection and animals whose response latencies were equal to or greater than three seconds over the second pre-treatment trial (i.e., the one done 30 minutes before dosing) were considered protected from the pain. In the tail flick procedure, a high intensity light beam was focused on the blackened portion of the rat's tail and the reaction time, i.e., latency to move its tail, was measured before and 15, 30, 45, 60, 90 and 120 minutes after drug administration. A subject was considered protected from the pain stimulus when Po ≥Pr +Pr 2 where Po is the individual post treatment value and Pr, the pretreatment value. The ED50's reported below for both of these procedures were calculated from values obtained at the 60 minute post dose interval.

mice [3] = experiment: phenyl-benzoquinone (PBQ) writhing test; assay type: in vivo, mouse
Method: as §1
In mice, two test procedures designed to detect analgesic activity were used: the phenyl-benzoquinone (PBQ) writhing test and the hot plate test. […] […] In the hot plate test, subjects were placed on the surface of a hot copper plate maintained at 54.5°±1.0° C. For the oral studies drugs were injected 30 minutes before testing on the hot plate. Drugged animals whose reaction time (consisting of paw licking or jumping behavior) was equal to or greater than 2 seconds over the average of an untreated control group of mice were considered to be protected from the pain.

rats [4] = experiment: tail flick test in rats; assay type: in vivo; conditions: po, 1 h; rat, p.o., 60 minute post dose interval; read-out: ED50 (95% C.L.), Rat Tail Flick
Method: as §1
as §2, with “A subject was considered protected from the pain stimulus when Po ≥Pr +Pr 2 where Po is the individual post treatment value and Pr, the pretreatment value. The ED50's reported below for both of these procedures were calculated from values obtained at the 60 minute post dose interval.” left out

mice [5] = experiment: hot plate test in mice; assay type: in vivo; conditions: po, 0.5 h; mouse, p.o., 30 minutes before testing, 54.5°±1.0° C.; read-out: ED50 (95% C.L.), Mouse Hot Plate
Method: as §1
In mice, two test procedures designed to detect analgesic activity were used: the phenyl-benzoquinone (PBQ) writhing test and the hot plate test. In the PBQ procedure, the drugs were injected 15 minutes before an intraperitoneal injection of PBQ was made for the subcutaneous studies and 30 minutes before the PBQ for the oral studies. […] In the hot plate test, subjects were placed on the surface of a hot copper plate maintained at 54.5°±1.0° C. For the oral studies drugs were injected 30 minutes before testing on the hot plate. Drugged animals whose reaction time (consisting of paw licking or jumping behavior) was equal to or greater than 2 seconds over the average of an untreated control group of mice were considered to be protected from the pain.

[6] = po, 0.5 h, mouse, p.o., drug 30 minutes before PBQ, read-out: ED50 (95% C.L.), Mouse PBQ
[7] = sc, 0.25 h, mouse PBQ assay, s.c., 15 min post dose, table 6, read-out: Analgesic activity, s.c. ED50 at 15 min post dose
[8] = sc, 0.25 h, mouse, s.c., drug 15 minutes before PBQ, table 5, read-out: ED50 (95% C.L.), Mouse PBQ
[9] = sc, 0.75 h, mouse PBQ assay, s.c., 45 min post dose, table 6, read-out: Analgesic activity, s.c. ED50 at 45 min post dose

SMILES: COc1cc2c(cc1OC)C(C)N(CCc1ccc(Cl)cc1)CC2 (stereo not drawn)
- analgesic properties / activity reported by Brossi et al [1]: reported not to exhibit analgesic properties

SMILES: COc1cc2c(cc1OC)C(C)N(CCc1ccc(N)cc1)CC2 (stereo not drawn) [Example 1, N-(4-aminophenethyl)-1,2,3,4-tetrahydro-6,7-dimethoxy-1-methylisoquinoline]
- ED50 (rats [2]; po, p.o.): 30 to 60 mg/kg
- ED50 (rats [2]; sc, s.c.): 35.7 mg/kg
- ED50 (mice [3]; [6]): 48.5 mg/kg
- ED50 (mice [3]; [7]): 7 mg/kg
- ED50 (mice [3]; [8]): 3.7 mg/kg
- ED50 (mice [3]; [9]): 24.2 mg/kg
- ED50 (rats [4]): ~31.6 mg/kg
- ED50 (mice [5]): 25.7 mg/kg

SMILES: CNc1ccc(CCN2CCc3cc(OC)c(OC)cc3C2C)cc1.Cl (stereo not drawn) [Example 2, N-(4-Methylaminophenethyl)-1,2,3,4-tetrahydro-6,7-dimethoxy-1-methylisoquinoline hydrochloride]
- ED50 (rats [2]; po, p.o.): ~17.8 mg/kg
- ED50 (mice [3]; [6]): 42.8 mg/kg
- ED50 (mice [3]; [8]): 5.2 mg/kg
- ED50 (rats [4]): 30 to 60 mg/kg
- ED50 (mice [5]): 31.7 mg/kg

SMILES: COc1cc2c(cc1OC)C(C)N(CCc1cccc(N)c1)CC2.Cl.Cl (stereo not drawn) [Example 3, N-(3-Aminophenethyl)-1,2,3,4-tetrahydro-6,7-dimethoxy-1-methylisoquinoline dihydrochloride]
- ED50 (mice [3]; [7]): 11.9 mg/kg
- ED50 (mice [3]; [9]): 20.2 mg/kg

SMILES: COc1cc2c(cc1OC)C(C)N(CCc1ccccc1N)CC2 (stereo not drawn) [Example 4, N-(2-Aminophenethyl-1,2,3,4-tetrahydro-6,7-dimethoxy-1-methylisoquinolinedihydrochloride]
- ED50 (mice [3]; [7]): 10.7 mg/kg
- ED50 (mice [3]; [9]): 34 mg/kg

SMILES: COc1cc2c(cc1OC)C(C)N(CCc1ccc(N(C)C)cc1)CC2.Cl.Cl (stereo not drawn) [Example 5, N-(4-Dimethylaminophenethyl)-1,2,3,4-tetrahydro-6,7-dimethoxy-1-methylisoquinoline dihydrochloride]
- ED50 (mice [3]; [7]): 27.3 mg/kg
- ED50 (mice [3]; [9]): 26.7 mg/kg

SMILES: COc1cc2c(cc1OC)C(C)N(CCc1ccc(NC(C)=O)cc1)CC2.Cl (stereo not drawn) [Example 6, N-(4-Acetamidophenethyl)-1,2,3,4-tetrahydro-6,7-dimethoxy-1-methylisoquinoline hydrochloride]
- ED50 (mice [3]; [7]): 21 mg/kg
- ED50 (mice [3]; [9]): 31.6 to 56.2 mg/kg

SMILES: COc1cc2c(cc1OC)CN(CCc1ccc([N+](=O)[O-])cc1)CC2.Cl [Example 7, N-(4-Nitrophenethyl)-1,2,3,4-tetrahydro-6,7-dimethoxyisoquinoline hydrochloride]
- ED50 (mice [3]; [7]): 9 mg/kg
- ED50 (mice [3]; [9]): 34 mg/kg

SMILES: COc1cc2c(cc1OC)CN(CCc1ccc(N)cc1)CC2.Cl.Cl [Example 8, N-(4-Aminophenethyl)-1,2,3,4-tetrahydro-6,7-dimethoxyisoquinoline dihydrochloride]
- ED50 (mice [3]; [7]): 2.9 mg/kg
- ED50 (mice [3]; [9]): 16.2 mg/kg

SMILES: COc1ccc2c(c1)CCN(CCc1ccc([N+](=O)[O-])cc1)C2C.Cl.Cl (stereo not drawn) [Example 9, N-(4-Nitrophenethyl)-1,2,3,4-tetrahydro-6-methoxy-1-methylisoquinoline dihydrochloride]
- ED50 (mice [3]; [7]): 10.4 mg/kg
- ED50 (mice [3]; [9]): 16.4 mg/kg

SMILES: COc1ccc2c(c1)CCN(CCc1ccc(N)cc1)C2C.Cl.Cl (stereo not drawn) [Example 10, N-(4-Aminophenethyl)-1,2,3,4-tetrahydro-6-methoxy-1-methyl-isoquinoline dihydrochloride]
- ED50 (mice [3]; [7]): 6.5 mg/kg
- ED50 (mice [3]; [9]): 11.8 mg/kg

SMILES: COc1ccc2c(c1)CCN(CCc1ccc(NC=O)cc1)C2C (stereo not drawn) [Example 11 (N--Formyl), N-(4-Formamidophenethyl)-1,2,3,4-tetrahydro-6-methoxy-1-methylisoquinoline]
- ED50 (mice [3]; [7]): 3.5 mg/kg
- ED50 (mice [3]; [9]): 15.3 mg/kg

SMILES: CNc1ccc(CCN2CCc3cc(OC)ccc3C2C)cc1.Cl (stereo not drawn) [Example 11, N-(4-Methylaminophenethyl)-1,2,3,4-tetrahydro-6-methoxy-1-methylisoquinoline hydrochloride]
- ED50 (mice [3]; [7]): 6 mg/kg
- ED50 (mice [3]; [9]): 13.8 mg/kg

SMILES: COc1cc2c(cc1OC)C(C)N(CCc1ccc(O)cc1)CC2.Cl (stereo not drawn) [Example 12, N-(4-Hydroxyphenethyl)-1,2,3,4-tetrahydro-6,7-dimethoxy-1-methylisoquinoline hydrochloride]
- ED50 (mice [3]; [7]): 5.8 mg/kg
- ED50 (mice [3]; [9]): 10 to 31.6 mg/kg

SMILES: COc1cc2c(cc1OC)CN(CCc1ccc(O)cc1)CC2.Cl [Example 13, N-(4-Hydroxyphenethyl)-1,2,3,4-tetrahydro-6,7-dimethoxyisoquinoline hydrochloride]
- ED50 (mice [3]; [7]): 2.8 mg/kg
- ED50 (mice [3]; [9]): 22.4 mg/kg

SMILES: COc1cc2c(cc1O)CCN(CCc1ccc(N)cc1)C2C.Cl.Cl (stereo not drawn) [Example 14, N-(4-Aminophenethyl)-1,2,3,4-tetrahydro-6-hydroxy-7-methoxy-1-methylisoquinoline dihydrochloride]
- ED50 (mice [3]; [7]): 7.3 mg/kg
- ED50 (mice [3]; [9]): 25.8 mg/kg

SMILES: CC1c2cc(O)c(O)cc2CCN1CCc1ccc(N)cc1 (stereo not drawn) [Example 15, N-(4-Aminophenethyl)-1,2,3,4-tetrahydro-6,7-dihydroxy-1-methylisoquinolinedihydrobromide]
- ED50 (mice [3]; [7]): 25.4 mg/kg
- ED50 (mice [3]; [9]): ~100 mg/kg
